Data taken from ChEMBL document CHEMBL1201862, “PubChem BioAssay data set” (2004).
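Cells were grown in 96-well plates and exposed to each compound for 48 hours at five concentrations; endpoints were interpolated linearly between bracketing concentrations, or set to the highest concentration if not reached. Abbreviation: GI50, concentration required for 50% inhibition of growth.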 The source made the active and inactive calls. Rule as the data show it: active = GI50 up to about 1.1 µM and inactive = higher.

How the values were obtained:
Assay in all cases: NCI-60 cell line screen, 48 h
A498 = tested on: A498
CAKI-1 = tested on: CAKI-1
COLO 205 = tested on: COLO 205
DU-145 = tested on: DU-145
HCC 2998 = tested on: HCC 2998
HL-60 = tested on: HL-60
HOP-92 = tested on: HOP-92
KM12 = tested on: KM12
LOX IMVI = tested on: LOX IMVI
MDA-MB-435 = tested on: MDA-MB-435
NCI-H226 = tested on: NCI-H226
OVCAR-4 = tested on: OVCAR-4
OVCAR-5 = tested on: OVCAR-5
OVCAR-8 = tested on: OVCAR-8
SK-MEL-5 = tested on: SK-MEL-5
SK-OV-3 = tested on: SK-OV-3
SN12C = tested on: SN12C
SNB-19 = tested on: SNB-19
SNB-75 = tested on: SNB-75
DMS-273 = tested on: DMS-273

Measured: GI50

CC[C@H](C)[C@H]1NC(=O)[C@@H](NC(=O)[C@@H](CC(C)C)N(C)C(=O)C2CCCN2C(=O)[C@H](C)O)[C@@H](C)OC(=O)[C@H](Cc2ccccc2)N(C)C(=O)[C@@H]2CCCN2C(=O)[C@H](CC(C)C)NC(=O)[C@@H](C)C(=O)[C@H](C(C)C)OC(=O)C[C@@H]1O (stereo not given in full)
active: A498 < 0.00625 µM | CAKI-1 < 0.00625 µM | COLO 205 < 0.00625 µM | DU-145 < 0.00625 µM | HCC 2998 < 0.00625 µM | HL-60 0.122 µM | HOP-92 < 0.00625 µM | KM12 < 0.00625 µM | LOX IMVI < 0.00625 µM | MDA-MB-435 < 0.00625 µM | NCI-H226 < 0.00625 µM | OVCAR-4 < 0.00625 µM | OVCAR-5 < 0.00625 µM | OVCAR-8 < 0.00625 µM | SK-MEL-5 < 0.00625 µM | SK-OV-3 < 0.00625 µM | SN12C < 0.00625 µM | SNB-19 < 0.00625 µM | SNB-75 < 0.00625 µM

O=CC(I)=C(c1ccccc1)c1ccccc1
inactive: A498 20.7 µM | CAKI-1 16.2 µM | COLO 205 18.3 µM | DU-145 15.2 µM | HCC 2998 19.7 µM | HL-60 6.5 µM | HOP-92 18.9 µM | KM12 15 µM | LOX IMVI 9.51 µM | MDA-MB-435 17 µM | NCI-H226 23.8 µM | OVCAR-4 13.4 µM | OVCAR-5 21.8 µM | OVCAR-8 21.7 µM | SK-MEL-5 17.3 µM | SK-OV-3 13.6 µM | SN12C 20.7 µM | SNB-19 15.7 µM | SNB-75 17.1 µM

CCOC(=O)CCN1C(=O)C(=O)N(c2ccc(OC)cc2)C1=S
inactive: A498 > 100 µM | CAKI-1 > 100 µM | COLO 205 > 100 µM | DU-145 > 100 µM | HCC 2998 69.2 µM | HL-60 > 100 µM | HOP-92 > 100 µM | KM12 39.1 µM | LOX IMVI > 100 µM | MDA-MB-435 > 100 µM | NCI-H226 25.6 µM | OVCAR-4 63 µM | OVCAR-5 > 100 µM | OVCAR-8 > 100 µM | SK-MEL-5 > 100 µM | SK-OV-3 > 100 µM | SN12C > 100 µM | SNB-19 > 100 µM | SNB-75 > 100 µM

COc1cc(C2C(Cl)C(=O)N2n2cnc3ccccc3c2=O)cc(OC)c1OC (stereo not given)
inactive: CAKI-1 67.1 µM | COLO 205 > 100 µM | DMS-273 41 µM | HCC 2998 > 100 µM | HL-60 28.2 µM | KM12 41.9 µM | LOX IMVI 57.4 µM | NCI-H226 > 100 µM | OVCAR-4 82.2 µM | OVCAR-5 > 100 µM | OVCAR-8 > 100 µM | SK-MEL-5 > 100 µM | SK-OV-3 > 100 µM | SN12C > 100 µM | SNB-19 > 100 µM | SNB-75 65.5 µM

Oc1ccc(Cl)cc1-c1cc(-c2ccccc2)nc(NCN2CCCCC2)n1
active: KM12 0.78 µM | NCI-H226 0.838 µM
inactive: A498 > 100 µM | CAKI-1 8.81 µM | COLO 205 > 100 µM | DU-145 > 100 µM | HCC 2998 > 100 µM | HL-60 > 100 µM | HOP-92 > 100 µM | LOX IMVI > 100 µM | MDA-MB-435 > 100 µM | OVCAR-4 > 100 µM | OVCAR-5 > 100 µM | OVCAR-8 > 100 µM | SK-MEL-5 15.8 µM | SK-OV-3 > 100 µM | SN12C > 100 µM | SNB-19 > 100 µM | SNB-75 > 100 µM

CN1C(=O)CCC1(O)C1C=CC=CC1 (stereo not given)
inactive: CAKI-1 > 100 µM | COLO 205 > 100 µM | DMS-273 > 100 µM | HCC 2998 > 100 µM | HL-60 > 100 µM | KM12 > 100 µM | LOX IMVI > 100 µM | NCI-H226 > 100 µM | OVCAR-4 > 100 µM | OVCAR-5 > 100 µM | OVCAR-8 > 100 µM | SK-MEL-5 > 100 µM | SK-OV-3 > 100 µM | SN12C > 100 µM | SNB-19 > 100 µM | SNB-75 > 100 µM

CC1(C)C=C(/C=N/Nc2ccccc2)C(C#N)=C(O)C1(C#N)C#N
inactive: A498 48.6 µM | CAKI-1 > 100 µM | COLO 205 74.1 µM | DU-145 > 100 µM | HCC 2998 > 100 µM | HL-60 41.9 µM | HOP-92 28.5 µM | KM12 > 100 µM | LOX IMVI > 100 µM | MDA-MB-435 > 100 µM | NCI-H226 > 100 µM | OVCAR-4 > 100 µM | OVCAR-5 > 100 µM | OVCAR-8 > 100 µM | SK-MEL-5 > 100 µM | SK-OV-3 > 100 µM | SN12C > 100 µM | SNB-19 > 100 µM | SNB-75 > 100 µM

O=C(O)Cc1nc[nH]c1C(=O)O
inactive: A498 > 100 µM | CAKI-1 > 100 µM | COLO 205 > 100 µM | DU-145 > 100 µM | HCC 2998 > 100 µM | HL-60 > 100 µM | HOP-92 > 100 µM | KM12 > 100 µM | LOX IMVI > 100 µM | MDA-MB-435 > 100 µM | NCI-H226 > 100 µM | OVCAR-4 > 100 µM | OVCAR-5 > 100 µM | OVCAR-8 > 100 µM | SK-MEL-5 > 100 µM | SK-OV-3 > 100 µM | SN12C > 100 µM | SNB-19 > 100 µM | SNB-75 > 100 µM

CCOC(=O)c1c(SCCN(CC)CC)n(-c2ccccc2)c(=S)n(-c2ccccc2)c1=O
inactive: A498 15.2 µM | CAKI-1 2.16 µM | COLO 205 2.5 µM | DU-145 1.68 µM | HCC 2998 1.73 µM | HL-60 1.73 µM | HOP-92 1.92 µM | KM12 14.3 µM | LOX IMVI 1.95 µM | MDA-MB-435 2.23 µM | NCI-H226 21.5 µM | OVCAR-4 9.66 µM | OVCAR-5 30.3 µM | OVCAR-8 2.64 µM | SK-MEL-5 2.61 µM | SK-OV-3 19.3 µM | SN12C 1.91 µM | SNB-19 17.9 µM | SNB-75 8.81 µM

FC(F)(F)c1ccccc1N1CCN(c2nc(-c3cccs3)nc3ccc(Br)cc23)CC1
active: HOP-92 < 0.01 µM
inactive: A498 71.3 µM | CAKI-1 21.6 µM | COLO 205 23.4 µM | DU-145 63.4 µM | HCC 2998 4.58 µM | HL-60 36.4 µM | KM12 13.4 µM | LOX IMVI 34.7 µM | MDA-MB-435 23.9 µM | NCI-H226 30.8 µM | OVCAR-4 5.16 µM | OVCAR-5 27.6 µM | OVCAR-8 66.2 µM | SK-MEL-5 14.6 µM | SK-OV-3 57.3 µM | SN12C 45.8 µM | SNB-19 50.7 µM | SNB-75 24.9 µM

CN(C(=O)C1=CCC2(CC1)OCCO2)c1ccccc1I
inactive: A498 > 100 µM | CAKI-1 > 100 µM | COLO 205 > 100 µM | DU-145 > 100 µM | HCC 2998 > 100 µM | HL-60 96.6 µM | HOP-92 > 100 µM | KM12 > 100 µM | LOX IMVI > 100 µM | MDA-MB-435 > 100 µM | NCI-H226 > 100 µM | OVCAR-4 > 100 µM | OVCAR-5 > 100 µM | OVCAR-8 > 100 µM | SK-MEL-5 > 100 µM | SK-OV-3 > 100 µM | SN12C > 100 µM | SNB-19 > 100 µM | SNB-75 > 100 µM

COc1cc(OC)c2c(=O)c(O)c(-c3ccc(OC)c(OC)c3)oc2c1
inactive: A498 10.3 µM | CAKI-1 4.1 µM | COLO 205 4.84 µM | DU-145 8.28 µM | HCC 2998 4.26 µM | HL-60 3.48 µM | HOP-92 2.99 µM | KM12 7.29 µM | LOX IMVI 3.78 µM | MDA-MB-435 22.6 µM | NCI-H226 9.4 µM | OVCAR-5 10.3 µM | OVCAR-8 3.83 µM | SK-MEL-5 5.96 µM | SK-OV-3 13.6 µM | SN12C 6.28 µM | SNB-19 10.3 µM | SNB-75 7.59 µM
active: OVCAR-4 0.607 µM

Nc1ncnn2c(C3OC(CO)C(O)C3O)ccc12 (stereo not given)
active: A498 0.155 µM | CAKI-1 0.235 µM | COLO 205 0.188 µM | DU-145 0.23 µM | HCC 2998 0.426 µM | HL-60 0.105 µM | HOP-92 0.0173 µM | KM12 0.107 µM | LOX IMVI 0.0201 µM | MDA-MB-435 0.137 µM | NCI-H226 0.235 µM | OVCAR-4 0.0906 µM | OVCAR-5 0.338 µM | OVCAR-8 0.0991 µM | SK-MEL-5 0.226 µM | SK-OV-3 0.226 µM | SN12C 0.195 µM | SNB-19 0.421 µM | SNB-75 0.329 µM

CC(=O)Nc1ccc2c3c(cc(O)c2c1)N(C(=O)CCCCCC(=O)Nc1ccc2c4c(cc(O)c2c1)N(C(=O)OC(C)(C)C)CC4CCl)CC3CCl (stereo not given)
active: DU-145 0.463 µM | HL-60 0.355 µM
inactive: A498 1.64 µM | CAKI-1 > 100 µM | COLO 205 1.99 µM | HCC 2998 1.42 µM | HOP-92 3.59 µM | KM12 2.73 µM | LOX IMVI 1.92 µM | MDA-MB-435 1.63 µM | NCI-H226 1.55 µM | OVCAR-4 5.36 µM | OVCAR-5 10 µM | OVCAR-8 2.35 µM | SK-MEL-5 1.33 µM | SK-OV-3 3.54 µM | SN12C 3.45 µM | SNB-19 1.6 µM | SNB-75 1.49 µM

N=C(N)SCCc1cn2ccccc2n1
inactive: CAKI-1 > 100 µM | COLO 205 > 100 µM | DMS-273 > 100 µM | HCC 2998 > 100 µM | HL-60 > 100 µM | KM12 > 100 µM | LOX IMVI > 100 µM | NCI-H226 > 100 µM | OVCAR-4 > 100 µM | OVCAR-5 > 100 µM | OVCAR-8 > 100 µM | SK-MEL-5 6.92 µM | SN12C > 100 µM | SNB-19 > 100 µM | SNB-75 > 100 µM
